Results from patent US5789377A (priority 1995, dated 1998).
Read-outs that look alike come from different tables or passages of the source.

Columns and labels:
Format in all cases: cell-based
Candida albicans = assay: MIC broth dilution; conditions: fragments of CEMA
Protocol: (§1) The minimum inhibitory concentrations (MIC) of CEME, CEMA and melittin were determined for a number of different bacteria (Table 2). Briefly, cells were grown overnight at 37° C. in LB-S (Luria broth without any salt supplement) and diluted one in 10,000 in the same medium to give concentrations of about 10^4 to 10^5 CFU/ml. The broth dilutions were set up in a 96 well microtiter plate by putting 200 μl of LB-S containing the initial concentration of antibiotic or compound in column 1 and 100 μl of the same medium in columns 2-12. The compounds were diluted by taking 100 μl of broth from column 1 and mixing it with column 2, resulting in a one in two dilution. This was continued to column 10. Finally, 10 μl of bacteria were pipetted into columns 1-11, and the plates incubated overnight at 37° C. The next day the plates were scored for growth in the wells, and the MIC determined.
Consequently, although CEMA is an effective antimicrobial agent, the individual fragments have no antimicrobial (or anti-fungal) activity.

P. aeruginosa = conditions: fragments of CEMA
Protocol: as §1

E. coli = tested on: E. coli
Protocol: as §1

S. aureus = conditions: fragments of CEMA
Protocol: as §1

P. AERUGINOSA H309 [1] = assay: 1-N-phenylnaphthylamine (NPN) uptake assay; conditions: 10 μM NPN, fluorescence, FIG. 7
Source text: (§2) The second assay determined membrane permeability by the ability of 1-N-phenylnaphthylamine (NPN), a small fluorescent probe, to insert itself into the membrane. Normally, very little NPN can penetrate the outer membrane, but in the presence of a membrane permeabilizer it can insert into the hydrophobic membrane resulting in an increase in fluorescence (FIGS. 7 and 8). This N-phenylnaphthylamine uptake assay was previously described by Loh, et al., Antimicrobial Agents and Chemo., 26:546, 1984. Cells were prepared exactly the same as for the lysozyme lysis assay. 1-N-phenylnaphthylamine (NPN) was dissolved in acetone at a concentration of 500 μM. NPN fluorescence was measured in a Perkin-Elmer 650-10S fluorescent spectrophotometer using excitation and emission wavelengths set to 350 nm and 420 nm respectively, with slit widths of 5 nm. The assay was standardized by adding 20 μl of NPN (final concentration of 10 μM) and 10 μl of 0.64 mg/ml of polymyxin B (final concentration of 6.4 μg/ml) into 1 ml of cells, and adjusting the resulting fluorescence to read 90% deflection (90 arbitrary units). Various compounds were tested by adding 10 μl of different concentrations to a cuvette containing 1 ml of cells and 10 μM NPN. Permeabilizing activity was designated as the total fluorescence minus the fluorescence due to NPN alone. Following the fluorescence measurement, the OD600 of the cells was taken to ensure no significant cell lysis had occurred.

E. cloacae 218R1 = assay: 1-N-phenylnaphthylamine (NPN) uptake assay; conditions: 10 μM NPN, fluorescence, FIG. 8
Source text: as §2

E. cloacae = conditions: strain 218R1, β-lactam resistant
Protocol: as §1

S. typhimurium = tested on: S. typhimurium
Protocol: as §1

RAW cells = assay: RAW cell viability by Trypan blue exclusion; conditions: up to 50 μg peptide
E. coli strain DC2 = assay: gel overlay antibacterial activity assay; conditions: gel overlaid with ≈10^5 E. coli strain DC2, overnight at 37° C.
Protocol: A sample of the partially purified CEME protein was electrophoresed on a 15% acid-urea gel, which separates proteins based on charge and mass (Panyim and Chalkey, Arch. Biochem. Biophys., 130:337, 1969). The pH of the buffer is acidic (=pH 5.0) and the polarity is reversed such that proteins migrate to the cathode. Therefore, the small cationic peptides run relatively quickly through the gel and thus can be easily identified. Antibacterial activity was tested as previously described (Hultmark, Eur. J. Biochem., 106:7, 1980). The gel was incubated in Mueller Hinton broth+0.2M NaPO4 pH 7.4 for 1 hr. It was overlaid with 5 mls of the same media containing 0.6% agar and ≈10^5 E. coli strain DC2, and then again with 5 ml of the same media containing only 0.6% agar. […] Melittin is used as a positive control due to its antibacterial activity and similarity in size and PI values.

P. AERUGINOSA H309 [2] = assay: lysozyme lysis assay (membrane permeabilization); conditions: 50 μg/ml lysozyme, decrease in OD600, FIG. 5
Protocol: Membrane permeabilization by polycationic compounds was measured in two different assays. The first assay measured membrane disruption by the ability of lysozyme to reach the periplasm and cause cell lysis. […] The uptake of lysozyme into whole cells due to membrane permeabilization by various compounds was previously described in Hancock, et al., Antimicrobial Agents and Chemo., 19:777, 1981. Overnight cultures of P. aeruginosa H309 or E. cloacae 218R1 grown in LB-S were diluted 1 in 50 in fresh medium and grown to an OD600 =0.5-0.6. The cells were harvested in a Silencer H-103N clinical centrifuge at 1800 g for 10 min, washed once with one volume of assay buffer (5 mM HEPES pH 7.2, 5 mM KCN), and resuspended in the same buffer to an OD600 of 0.5. Assays consisted of 600 μl of cells with 50 μg/ml of chicken egg white lysozyme and varying concentrations of cationic compounds. Cell lysis was measured as a decrease in the OD600 in a Perkin-Elmer dual beam spectrophotometer. Parallel experiments performed without lysozyme enabled the measurement of the lytic activity of the compounds themselves. To test whether or not permeability to lysozyme could be inhibited by divalent cations, various concentrations of MgCl2 were added to the assay after the addition of lysozyme and before the addition of the test compound.

[3] = strain C590, Defensin sensitive
[4] = strain DC2, Polymyxin sensitive
[5] = strain SC9251, Parent of SC9252
[6] = strain SC9252, Polymyxin resistant

Molecule	opening up the membrane to NPN (P. AERUGINOSA H309 [1])	MIC (E. cloacae) [µg/mL]	MIC (S. typhimurium; strain C587, Parent of C590) [µg/mL]	MIC (S. typhimurium; [3]) [µg/mL]	MIC (E. coli; [4]) [µg/mL]	MIC (E. coli; [5]) [µg/mL]	MIC (E. coli; [6]) [µg/mL]	other results
CC[C@H](C)[C@H](NC(=O)CN)C(=O)NCC(=O)N[C@@H](C)C(=O)N[C@H](C(=O)N[C@@H](CC(C)C)C(=O)N[C@@H](CCCCN)C(=O)N[C@H](C(=O)N[C@@H](CC(C)C)C(=O)N[C@H](C(=O)N[C@H](C(=O)NCC(=O)N[C@@H](CC(C)C)C(=O)N1CCC[C@H]1C(=O)N[C@@H](C)C(=O)N[C@@H](CC(C)C)C(=O)N[C@@H](CCCCN)C(=O)N[C@@H](CC(C)C)C(=O)N[C@H](C(=O)N[C@@H](CCCCN)C(=O)O)[C@@H](C)O)[C@@H](C)O)[C@@H](C)O)C(C)C)C(C)C [MA]	–	–	–	–	–	–	–	MIC (Candida albicans): greater than 64 ug/ml; MIC (P. aeruginosa): greater than 64 ug/ml; MIC (E. coli; E. coli, fragments of CEMA): greater than 64 ug/ml; MIC (S. aureus): greater than 64 ug/ml
polymyxin B [PX]	equally active	0.5	1	0.25	0.06	0.06	4	opening up the membrane to NPN (E. cloacae 218R1): equally active
CC[C@H](C)[C@H](NC(=O)CNC(=O)[C@@H](NC(=O)[C@H](CCCCN)NC(=O)[C@H](CCCCN)NC(=O)[C@H](Cc1ccccc1)NC(=O)[C@H](CC(C)C)NC(=O)[C@H](CCCCN)NC(=O)[C@H](Cc1c[nH]c2ccccc12)NC(=O)[C@@H](N)CCCCN)[C@@H](C)CC)C(=O)NCC(=O)N[C@@H](C)C(=O)N[C@H](C(=O)N[C@@H](CC(C)C)C(=O)N[C@@H](CCCCN)C(=O)N[C@H](C(=O)N[C@@H](CC(C)C)C(=O)N[C@H](C(=O)N[C@H](C(=O)NCC(=O)N[C@@H](CC(C)C)C(=O)N1CCC[C@H]1C(=O)N[C@@H](C)C(=O)N[C@@H](CC(C)C)C(=O)N[C@@H](CCCCN)C(=O)N[C@@H](CC(C)C)C(=O)N[C@H](C(=O)N[C@@H](CCCCN)C(=O)O)[C@@H](C)O)[C@@H](C)O)[C@@H](C)O)C(C)C)C(C)C [CEMA]	–	–	–	–	–	–	–	RAW cell viability (RAW cells): no apparent decrease
CC[C@H](C)[C@H](NC(=O)CN)C(=O)NCC(=O)N[C@@H](C)C(=O)N[C@H](C(=O)N[C@@H](CC(C)C)C(=O)N[C@@H](CCCCN)C(=O)N[C@H](C(=O)N[C@@H](CC(C)C)C(=O)N[C@H](C(=O)N[C@H](C(=O)NCC(=O)N[C@@H](CC(C)C)C(=O)N1CCC[C@H]1C(=O)N[C@@H](C)C(=O)N[C@@H](CC(C)C)C(=O)N[C@H](C(=O)N[C@@H](CO)C(=O)N[C@@H](Cc1c[nH]c2ccccc12)C(=O)N[C@H](C(=O)N[C@@H](CCCCN)C(=O)N[C@@H](CCCNC(=N)N)C(=O)N[C@@H](CCCCN)C(=O)N[C@@H](CCCNC(=N)N)C(=O)N[C@@H](CCC(N)=O)C(=O)N[C@@H](CCC(N)=O)C(N)=O)[C@@H](C)CC)[C@@H](C)CC)[C@@H](C)O)[C@@H](C)O)C(C)C)C(C)C [MEL, melittin]	less active	–	–	–	–	–	–	zones of clearing on overlaid acid-urea gel (E. coli strain DC2): zones of clearing; permeabilization of outer membrane to lysozyme (P. AERUGINOSA H309 [2]): did not appear to be a good permeabilizer as compared to the other peptides
gentamicin [GM]	–	0.5	4	2	0.5	2	4	–
